Data: US8492374B2, “Azaazulene compounds” (Industrial Technology Research Institute, priority 2009, dated 2013)
pIC50: −log10 of the molar value.

Legend:
[1] = system: MV4-11 (FLT3-ITD) cell line; assay: In vitro cell activity assay (MTT cell viability, 72 hours); assay type: cell-based; details: Homo sapiens, 72 hours at 37° C., 10,000 cells per well, read-out: IC50 against MV4-11
Protocol: Human MV4-11 (FLT3-ITD) cell line was obtained from American Tissue Culture Collection (ATCC number: CRL-9591). The cell line was cultured with RPMI 1640 containing 10% fetal bovine serum, 1 mmol/L sodium pyruvate and 10 mmol/L HEPES (pH 7.4). The cell was grown and maintained in a humidified atmosphere at 37° C. and 5% carbon dioxide.
MV4-11 cell was plated in 96-well microtiter plates (10,000 cells per well) and serial dilutions of indicated compounds were added. At the end of the incubation period (72 hours at 37° C.), cell viability was determined by a tetrazolium dye, MTT (3-(4,5-dimethylthiazol-2-yl)-2,5-diphenyl tetrazolium bromide) (Promega, Madison, Wis.). The formazan crystals were dissolved by DMSO, and the absorbance at a wavelength of 600 nm was recorded using an ELISA plate reader. IC50 values were calculated using nonlinear regression and defined as the concentration needed for a 50% reduction in absorbance of treated versus untreated control cells.

FLT-3 kinase = target: T1, FLT-3 kinase (Homo sapiens, UniProt P36888); assay: FLT-3 kinase DELFIA assay (HTScan FLT-3 Kinase Assay Kit); assay type: biochemical; details: 20 uM ATP; for inhibition at 0.1 µM: 0.1 uM compound; for inhibition at 1 µM: 1 uM compound
T1 construct: human FLT-3 (Arg571-Ser993); GST (N); purchased Cell Signaling Technology HTScan FLT-3 Kinase Assay Kit; host or cells: baculovirus expression system
T1 sequence (P36888 571-993): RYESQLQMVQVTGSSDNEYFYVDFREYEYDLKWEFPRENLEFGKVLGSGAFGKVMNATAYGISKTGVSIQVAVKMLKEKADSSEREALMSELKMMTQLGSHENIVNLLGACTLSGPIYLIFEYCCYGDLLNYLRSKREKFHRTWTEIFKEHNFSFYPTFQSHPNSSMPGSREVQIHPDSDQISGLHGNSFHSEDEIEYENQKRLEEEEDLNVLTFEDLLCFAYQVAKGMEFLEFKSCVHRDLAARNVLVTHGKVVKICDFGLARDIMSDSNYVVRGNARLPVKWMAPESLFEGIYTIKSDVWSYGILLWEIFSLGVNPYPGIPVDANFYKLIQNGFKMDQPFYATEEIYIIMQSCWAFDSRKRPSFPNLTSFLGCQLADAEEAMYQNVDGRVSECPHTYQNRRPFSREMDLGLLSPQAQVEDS
Protocol: Azaazulene Compounds of this invention were treated for their efficacy in inhibiting activities of FLT-3, c-KIT and KDR kinases by biochemical DELFIA (Dissociation Enhanced Lanthanide FIA) assays according to the procedure described below. The assays were conducted by, Division of Cell Engineering, Biomedical Engineering Research Laboratories, Industrial Technology Research Institute, Bldg. 53, 195, sec. 4, Chung Hsing Rd. Chutung, Hsinchu, Taiwan 310, R.O.C.
The FLT-3 assay was conducted following the protocol described in Protocol for HTScang FLT-3 Kinase Assay Kit (Cell Signaling Technology®).

| SMILES | pIC50 [1] | inhibition at 0.1 µM (FLT-3 kinase) | inhibition at 1 µM (FLT-3 kinase) |
| --- | --- | --- | --- |
| O=c1[nH]c2cccccc-2c1-c1nc2cc(N3CCN(Cc4ccncc4)CC3)ccc2[nH]1 [Compound B47] | 6.52 |  |  |
| O=c1[nH]c2cccccc-2c1-c1nc2cc(N3CCN(c4cccnc4)CC3)ccc2[nH]1 [Compound B63] | 6.32 | 18.9% | 33.4% |
| CN1CCN(c2ccc3[nH]c(-c4c5cccccc-5[nH]c4=O)nc3n2)CC1 [Compound B27] | 6.43 |  |  |
| CS(=O)(=O)N1CCN(c2ccc3[nH]c(-c4c5cccccc-5[nH]c4=O)nc3c2)CC1 [Compound B57] | 6.98 | 29.5% | 81.5% |
| CN1CCN(C(=O)c2ccc3[nH]c(-c4c5cccccc-5[nH]c4=O)nc3c2)CC1 [Compound B71] | 6.02 | 6.8% | 39.3% |
| CC1CN(c2ccc3[nH]c(-c4c5cccccc-5[nH]c4=O)nc3c2)CC(C)N1 (centres unmarked) [Compound B24] | 7.12 | 19.1% | 71.5% |
| O=c1[nH]c2cccccc-2c1-c1nc2cc(N3CCN(Cc4ccc5ccccc5c4)CC3)ccc2[nH]1 [Compound B43] | 5.30 to 6.00 | 33.5% | 67.2% |
| O=C(Nc1cccc(F)c1)Nc1ccc2[nH]c(-c3c4cccccc-4[nH]c3=O)nc2c1 [Compound B126] | < 5.30 |  |  |
| O=c1[nH]c2cccccc-2c1-c1nc2cc(N3CCN(c4ccccn4)CC3)ccc2[nH]1 [Compound B64] | 6.60 | 29.5% | 79.2% |
| COc1ccccc1NC(=O)Nc1ccc2[nH]c(-c3c4cccccc-4[nH]c3=O)nc2c1 [Compound B137] | 7.00 to 7.30 | 14.3% | 19% |
| O=C(Nc1ccc2[nH]c(-c3c4cccccc-4[nH]c3=O)nc2c1)Nc1cc(F)ccc1F [Compound B120] | 6.17 | 10.2% | 10.1% |
| O=C(Nc1ccc(C(F)(F)F)cc1)Nc1ccc2[nH]c(-c3c4cccccc-4[nH]c3=O)nc2c1 [Compound B133] | 6.30 to 7.00 | 30.5% | 53.3% |
| O=C(Nc1ccc2[nH]c(-c3c4cccccc-4[nH]c3=O)nc2c1)Nc1ccc(Cl)cc1C(F)(F)F [Compound B136] | 5.30 to 6.00 | 21% | 70.8% |
| O=C(Nc1ccc(N2CCCC2)cn1)c1ccc2[nH]c(-c3c4cccccc-4[nH]c3=O)nc2c1 [Compound B73] | ~6.00 | 23.7% | 22.3% |
| CN1CCN(C2CCN(c3ccc4[nH]c(-c5c6cccccc-6[nH]c5=O)nc4c3)CC2)CC1 [Compound B105] | 6.75 | 38.7% | 86% |
| O=c1[nH]c2cccccc-2c1-c1nc2cc(-n3ccnc3)ccc2[nH]1 [Compound B115] | 6.51 | 25.4% | 72.7% |
| CCOCC1CCN(c2ccc3[nH]c(-c4c5cccccc-5[nH]c4=O)nc3c2)CC1 [Compound B109] | ~6.00 | 17.3% | 35.2% |
| O=c1[nH]c2cccccc-2c1-c1nc2cc(N3CCC(N4CCOCC4)CC3)ccc2[nH]1 [Compound B103] | 7.38 | 36.5% | 87.4% |
| CN(C)C1CCN(c2ccc3[nH]c(-c4c5cccccc-5[nH]c4=O)nc3c2)CC1 [Compound B101] | 7.40 | 46.8% | 90.7% |
| O=c1[nH]c2cccccc-2c1-c1nc2cc(N3CCNCC3)ccc2n1CC(F)(F)F [Compound B23] | 7.46 | 41.2% | 91.5% |
| O=c1[nH]c2cccccc-2c1-c1nc2cc3ccccc3cc2[nH]1 [Compound B18] |  | 16.4% | 40.2% |
| O=c1[nH]c2cccccc-2c1-c1nc2cc(Cl)cnc2[nH]1 [Compound B10] | 5.30 to 6.00 | 8.9% | 20.3% |

| SMILES | pIC50 [1] | inhibition at 0.1 µM (FLT-3 kinase) | inhibition at 1 µM (FLT-3 kinase) |
| --- | --- | --- | --- |
| CN1CCCN(c2cc3nc(-c4c5cccccc-5[nH]c4=O)[nH]c3cc2F)CC1 [Compound B85] | 6.88 | 44.4% | 89.8% |
| CN(C)c1ccc(CN2CCN(c3ccc4[nH]c(-c5c6cccccc-6[nH]c5=O)nc4c3)CC2)cc1 [Compound B45] | 6.50 | 27.3% | 77% |
| O=c1[nH]c2cccccc-2c1-c1nc2cc(N3CCN(Cc4ccc(Br)o4)CC3)ccc2[nH]1 [Compound B46] | 6.50 | 27.4% | 79.2% |
| O=C(Nc1ccc2[nH]c(-c3c4cccccc-4[nH]c3=O)nc2c1)c1ccncc1 [Compound B75] | ~6.00 | 13.4% | 37.1% |
| O=C(Nc1ccc(F)c(Cl)c1)Nc1ccc2[nH]c(-c3c4cccccc-4[nH]c3=O)nc2c1 [Compound B130] | 5.30 to 6.00 | 8.6% | 24% |
| O=C(Nc1ccc2[nH]c(-c3c4cccccc-4[nH]c3=O)nc2c1)Nc1cc(C(F)(F)F)ccc1Cl [Compound B135] | 6.20 | 41.4% | 62% |
| O=c1[nH]c2cccccc-2c1-c1nc2cc(-n3nccn3)ccc2[nH]1 [Compound B116] |  | 36.3% | 62.7% |
| CN1CCCN(c2c(F)cc3[nH]c(-c4c5cccccc-5[nH]c4=O)nc3c2F)CC1 [Compound B86] | 6.60 |  |  |
| O=C(Nc1ccc2[nH]c(-c3c4cccccc-4[nH]c3=O)nc2c1)Nc1ccc(F)cc1F [Compound B128] | 5.30 to 6.00 |  |  |
| O=C(Nc1ccc2[nH]c(-c3c4cccccc-4[nH]c3=O)nc2c1)Nc1c(Cl)cncc1Cl [Compound B122] | < 5.30 |  |  |
| O=C(Nc1ccc2[nH]c(-c3c4cccccc-4[nH]c3=O)nc2c1)Nc1ccccc1F [Compound B125] | 6.17 |  |  |
| O=C(Nc1ccc(F)cc1)Nc1ccc2[nH]c(-c3c4cccccc-4[nH]c3=O)nc2c1 [Compound B127] | ~6.00 |  |  |
| O=C(Nc1ccccc1)Nc1ccc2[nH]c(-c3c4cccccc-4[nH]c3=O)nc2c1 [Compound B121] | 6.30 to 7.00 |  |  |
| CCc1cccc(C)c1NC(=O)Nc1ccc2[nH]c(-c3c4cccccc-4[nH]c3=O)nc2c1 [Compound B123] | 5.30 to 6.00 |  |  |
| CN(C)[C@@H]1CCN(c2ccc3[nH]c(-c4c5cccccc-5[nH]c4=O)nc3c2)C1 [Compound B110] |  | 36.5% | 84.9% |
| CCN1CCN(c2ccc3[nH]c(-c4c5cccccc-5[nH]c4=O)nc3c2)CC1 [Compound B28] | 7.02 |  |  |
| O=c1[nH]c2cccccc-2c1-c1nc2cc(F)c(F)cc2[nH]1 [Compound B3] | 5.30 to 6.00 |  |  |
| O=c1[nH]c2cccccc-2c1-c1nc2cc(N3CCC(O)CC3)ccc2[nH]1 [Compound B107] |  | 42.5% | 92.9% |
| O=C(Nc1ccc2[nH]c(-c3c4cccccc-4[nH]c3=O)nc2c1)Nc1c(F)cccc1F [Compound B129] | < 5.30 |  |  |
| O=C(Nc1ccc2[nH]c(-c3c4cccccc-4[nH]c3=O)nc2c1)NC1CCCCC1 [Compound B124] | ~5.30 |  |  |
| O=c1[nH]c2cccccc-2c1-c1nc2cc(N3CCN(Cc4cccnc4)CC3)ccc2[nH]1 [Compound B48] | 6.83 |  |  |
